# What was measured:
# Aqueous stability = type: physicochemical; conditions: 100 mM citrate, pH5.0, 37° C, 50 μM
# Method: Diluted solutions (50 μM) were incubated at 37° C. in a Fisher Scientific dry bath incubator (catalog # 11-718-2) with samples collected every 24 hours and stored at −80° C. Plasma samples (100 μL) were quenched with 1 mL of acetonitrile. […] Samples were resuspended in 120 μL of mobile phase buffer before HPLC injection.
# Samples were analyzed on an HP1090 or HP1100 (Hewlett Packard) HPLC using a C-18 Alltech Econosphere column, 150 mm×4.6 mm (catalog # 70065), with a C-18 Alltech Econosphere guard column, 7.5 mm×4.6 mm (catalog # 96121). Samples were eluted with a methanol gradient: 0% for 5 minutes, then increasing to 10% at 10 minutes, 30% at 20 minutes, and 60% at 25 minutes. The column was allowed to equilibrate in 0% methanol for 10 minutes before the next injection. The flow rate was 1 mL/minute with a column temperature of 40° C. Prodrugs eluted around 19.5 minutes and were monitored by UV absorbance at 280 nm. For prodrugs in aqueous conditions, the same method was employed except the methanol gradient was as follows: 0% for 5 minutes, increasing to 10% at 10 minutes, and 30% at 20 minutes with prodrug eluting around 20 minutes.
# [1] = Liver araCTP and liver targeting with continuous i.v. infusion in rats
# From the text: A saline filled blunt PE-50 tubing catheter (Intramedic, Becton Dickinson, Sparks, Md.) was inserted into the jugular vein, exteriorized between the scapulae and connected to a swivel-tethering constant infusion system (Lomir Biomedical, Inc., Malone, N.Y. and Harvard Apparatus, Inc., South Natick, Mass.). The tubing was filled with heparinized saline and sealed, and the animals allowed to recover for one to seven days.
# After the various durations of infusion the animals were anesthetized by intra-catheter injections of the anesthetic mix described above. Blood samples were obtained via cardiac puncture using a 23-gauge needle attached to a heparin coated 3 cc syringe.
# In those studies, liver, plasma and bone marrow samples were obtained at necropsy to evaluate liver targeting.
# Results are expressed as mean±standard error of the mean. When appropriate, AUC was calculated from time zero to the last time-point of the study. Liver targeting indices (LTIs) were calculated by dividing the liver araCTP AUC by the AUC for plasma araC (plasma LTI) or by the AUC for bone marrow araCTP (bone marrow LTI) for each compound. For the continuous infusion studies, the steady state araCTP levels were divided by the steady state plasma araC levels.
# [2] = Rat acute toxicity, 24 hr continuous i.v. infusion; type: in vivo; conditions: rats, 2000 mg/kg/24 hrs continuous i.v. infusion
# Method: Male and female Simonsen rats were instrumented for continuous infusion as described in Example C. On the day of treatment, the rats were hooked up to the constant infusion tether and given free access to food and water. Three male and three female rats were treated Compound A at a dose of 2000 mg/kg/24 hrs using a flow rate of 2.08 ml/kg/hr. Compound A was dissolved at 42.5 mg/ml in water and the pH adjusted to 4 with 1M HCl. The osmolarity was adjusted to ˜300 mOsm using 5M NaCl. As a control, 2 male rats were infused with pH 4 saline for the same period of time. The appearance and disposition of the rats was monitored regularly and notes about their behavior recorded every 1-3 hrs during the working day.
# The animals were anesthetized in a chamber supplied via a Fluotec 3 vaporizer with 5% isoflurane (Abbot Laboratories, NDC 0074-3292-02) in 100% oxygen at a flow rate of 1.5 to 2 liters per minute. […] The blood from each animal was divided between K2-EDTA-containing microtainer tubes (Becton Dickinson, 36/5974) and microtainer tubes with gel separators for serum (Becton Dickinson, 36/5956) and lithium heparin for plasma collection (Becton Dickinson, 36/5958). If possible, urine was removed from the bladder using a 23-gauge needle attached to a 3 cc syringe. Tissue samples were collected in the following order: liver, kidneys, small intestine, bladder and bone marrow. The small intestine was divided into three equal portions to represent samples from the duodenum, jejunum and ileum; fecal matter was manually removed by gentle sliding pressure using a blunt forceps. From each tissue, a portion was placed in 10% buffered formalin for histology.
# For cell counting, […] of EDTA-treated blood or PBS-suspended bone marrow flush was mixed with 450 μL or 950 μL, respectively, nuclear staining solution containing 0.19 mg/mL crystal violet (Sigma # C-1658, lot 112H3660) in 1 M acetic acid, and incubated at room temperature for at least 5 min. After brief vortexing, a 10 μl aliquot of the mixture was placed in a hemocytometer and cells were counted using a Nikon Optiphot-2 microscope. The blood samples were counted under a 40× objective to evaluate the number of mononuclear cells (lymphocytes and monocytes) and polymorphonuclear cells (PMN, including granulocytes of the neutrophil, eosinophil and basophil type). Nucleated bone marrow cells were counted under a 10× objective.
# EDTA-treated blood samples were submitted to LabCorp (San Diego, Calif.) for hematology analysis including erythrocyte and platelet numbers, hemoglobin, and hematocrit. Serum chemistry analysis was also performed by LabCorp. […]
# Solubility = type: physicochemical
# Method: With each of the three buffer systems, saturating solutions of Compound A and Compound B were prepared as follows. […] The resultant vials were sealed and equilibrated by tumbling at 25° C. for a minimum of 24 h. At the end of the incubation period, prodrug that was not in solution was removed from the samples by filtration through a 0.45 μm pore size nylon syringe filter. These diluted samples were assayed by the HPLC method of example E.
# human liver microsomes = assay: Enzyme kinetics of prodrug activation to araCMP in human liver microsomes
# [3] = Single IP injection liver targeting in rat; type: in vivo; conditions: 100 mg CE/kg single IP injection
# [4] = rats, 200 mg CE/kg/day continuous intravenous infusion
compound,measurement,setting,value
"Nc1ccn([C@@H]2O[C@H](CO[P@@]3(=O)OCC[C@@H](c4ccncc4)O3)[C@@H](O)[C@@H]2O)c(=O)n1 [Compound A, 2(1H)-Pyrimidinone, 4-amino-1-[5-O-[(2R,4S)-2-oxido-4-(4-pyridinyl)-1,3,2-dioxaphosphorinan-2-yl]-β-D-arabinofuranosyl]]",t90 in aqueous solution,Aqueous stability,2 days
same,reduction of peripheral exposure (liver targeting),[1]; administered by continuous intravenous infusion,~10 fold
same,LTI @ 24 hrs (Liver/plasma),[1]; [4],7.5 nmol/g/μM
same,Liver araCTP 24 hr,[1]; [4],12.0 nmol/g
same,Liver araCTP @ 4 hr,[1]; [4],12.8 nmol/g
same,Plasma Prodrug steady state,[1]; [4],40 to 50 µM
same,Plasma araC steady state,[1]; [4],~1.6 µM
same,steady state liver araCTP levels by 4 hours,"[1]; rats, continuous infusion 200 mg/kg/24 hours",12.84 ± 1.50 nmol/g
same,average liver araCTP for the remaining 44 hours,"[1]; rats, continuous infusion 200 mg/kg/24 hours, 48 hr",13 ± 1 nmol/g
same,serum chemistry and hematology parameters,[2],generally within normal ranges
same,serum triglycerides levels,[2],outside the normal range
same,overt toxicity,[2]; 24 hr treatment,no overt toxicity was noted
same,tolerability,[2]; 24 hrs,well tolerated
same,solubility,"Solubility; 0.5 M Pi pH 8.0 buffer, 25° C",2900 µg/mL
same,solubility,"Solubility; 0.5 M citrate pH 4.0, 25° C",45800 µg/mL
same,solubility,"Solubility; 0.5 M citrate pH 7.0, 25° C",2600 µg/mL
same,Vmax,"human liver microsomes; activation to araCMP, 2 mg/mL human liver microsomes lot RQX, 1 mM NADPH, pH 7.4, 37° C, 5 min",0.11 ± 0.02 nmol/min/mg
same,Km,"human liver microsomes; activation to araCMP, human liver microsomes lot RQX",1080 ± 270 µM
same,intrinsic clearance / activation rate relative to Compound B,human liver microsomes; human liver microsomes lot RQX,2.6 fold
same,LTI (Liver/plasma),[3],19.2 nmol/g/μM
same,Liver araCTP Peak @ 1 hr,[3],267 nmol/g

# From patent US7553826B2, “Cytarabine monophosphate prodrugs” (Metabasis Therapeutics, Inc., priority 2002, dated 2009)
